US7985774B2, “Use of 3,5-seco-4-nor-cholestane derivatives for obtaining a cytoprotective drug” (Trophos, priority 2006, dated 2011)

Tests used:
[1] = tested on: CD1 mice; experiment: Acute hepatotoxicity: intoxication by Jo2 anti-Fas antibody and assaying ALATs; format: in vivo; conditions: blood 24 hrs after Jo2, control 2,860 ± 382
Source text: An acute model of hepatic damage may be induced by a single injection of the Jo2 anti-Fas antibody (Ogasawara et al., Nature, August 1993), producing severe hepatic damages and resembling viral, auto-immune or drug-induced hepatitis.
Alanine Aminotransferase (ALAT) also called Serum Glutamic Pyruvic Transaminase (SGPT) is an enzyme present in hepatocytes.
(§1) Male adult CD1 mice from the breeder “Elevage Janvier”, (Le Genest-Saint-Isle, France) were used. The animals were identified individually and had free access to water and food.
(§2) A stock solution of monoclonal hamster anti-mouse CD95 (Fas) antibody, called Jo2, from Pharmingen (BD Biosciences, ref. 554254 batch 32699) is prepared at a concentration of 1 mg/mL in water. The dilutions used are made in 0.9% sodium chloride in water.
(§3) The desired amount of 3,5-seco-4-nor-cholestan-5-one oxime-3-ol is weighed and milled into a fine powder, and then mixed with Cremophore EL (Sigma C5135) and absolute ethanol (Carlo Erba RPE 41571) (5% and 10% of the final volume, respectively). After complete dissolution, 0.9% sodium chloride in water is added extemporaneously (85% of the final volume).
Pretreatment with 3,5-seco-4-nor-cholestan-5-one oxime-3-ol is carried out with dosages of 10 and 30 mg/kg by intraperitoneal administration 1 hr before administering the Jo2 antibody. […]

[2] = tested on: caspase-3; experiment: Caspase-3 activity (apoptosis) after doxorubicin; format: cell-based, rabbit; conditions: 8 hrs after exposure, control 19±9
Method: Isolated ventricular cells are obtained from hearts of male New Zealand rabbits as described in A. d'Anglemont de Tassigny et al., Fund. Clin. Pharmacol, 18: 531-38, 2004. Briefly, the rabbits (2.0-2.5 kg) are anaesthetized with a pentobarbital solution (50 mg/kg) and they then receive heparin (200 IU/kg). The hearts are excised and immediately perfused, for 10-15 minutes by means of a Langendorff apparatus without recirculation with an oxygenated tyrode (calcium-free) isotonic solution (95%, 2-5% CO2) (in mM: NaCl 135, KCl 5.4, Na2PO4 0.33, MgCl2 1.0, HEPES 10, pH adjusted to 7.4 with 1N NaOH at 37° C., 280-300 mOsmol/kgH2O). Next, all the hearts are perfused for 3 minutes in the “recirculation” mode with the same calcium-free Tyrode solution (coronary flow rate, 10-15 mL/min) added with 1 mg/mL of type II collagenase and 0.28 mg/mL of XIV type protease. Finally, all the hearts are perfused in a mode without any recirculation with the same solution of Tyrode supplemented with 0.3 mM of CaCl2 for 10 min. The left ventricle is removed and cut into small pieces; cell dissociation is achieved by mild mechanical stirring. Extracellular calcium is added by increments every 15 minutes, in order to reach a physiological concentration of 1.0 mM. […]
Caspase-3 activity is used as a quantitative method for measuring apoptosis. […] The fluorogenic substrate for measuring caspase-3 activity (DEVD) is marked with the fluorochrome, 7-amino-4-methyl coumarine (AMC), which produces […] fluorescence detectable in UV light at 360/460 nm for 210 min. […]
Apoptosis is induced in isolated cardiomyocytes by 3-8 hour exposure to 1 μM of doxorubicin added into an isotonic solution containing (in mM) NaCl 110, KCl 5.4, Na2PO4 0.33, NaHCO3 25, glucose 5, MgCl2 0.8, CaCl2 1, pH adjusted to 7.4. […] The contractility of cardiomyocytes was measured every hour during the 8 hrs of exposure to doxorubicin. […]

[3] = tested on: CD1 mice; experiment: Acute hepatotoxicity: lethal intoxication by the Jo2 antibody (survival); format: in vivo; conditions: for Survival rate: 24 hrs
Method: as §1, §2, §3
In this experiment, the effect of 3,5-seco-4-nor-cholestan-5-one oxime-3-ol on the survival of animals after administering a lethal dose of the Jo2 antibody is evaluated.
The Jo2 antibody is administered by intraperitoneal injection at a dose of 200 ou 250 μg/kg in a volume of 5 mL/kg of body weight.
3,5-seco-4-nor-cholestan-5-one oxime-3-ol is tested at 10 and 30 mg/kg, as a pretreatment, 1 hr before administering Jo2 or as a post-treatment, 1 hr after administering Jo2.
A control is obtained with animals receiving pretreatment by intraperitoneal administration, 1 hr before or 1 hr after administering the antibody, of an identical volume of solution having been used for preparing the compound to be tested, without the compound.

Q: What does the source list for `CC(C)CCC[C@@H](C)[C@H]1CC[C@H]2[C@@H]3CC/C(=N\O)[C@](C)(CCCO)[C@H]3CC[C@]12C` [3,5-seco-4-nor-cholestan-5-one oxime-3-ol]?
A: ALAT activity Average +/− SEM ([1]; 10 mg/kg i.p. 1 hr before Jo2 125 μg/kg i.p.): 511 ± 140 U/L; ALAT activity Average +/− SEM ([1]; 30 mg/kg i.p. 1 hr before Jo2 125 μg/kg i.p.): 533 ± 150 U/L; caspase-3 activity ([2]; doxorubicin 1 μM + compound 0.1 μM): 27 ± 20 fmol/min; caspase-3 activity ([2]; doxorubicin 1 μM + compound 0.3 μM): 15 ± 7 fmol/min; Survival rate ([3]; Experience 5: Jo2 200 μg/kg, 10 mg/kg post-treatment, control 30): 60%; Mortality (24 hrs)/total number of animals ([3]; Experience 5: Jo2 200 μg/kg, 10 mg/kg post-treatment, control 14/20): 8/20; Survival rate ([3]; Experience 6: Jo2 200 μg/kg, 30 mg/kg post-treatment, control 20): 60%; Mortality (24 hrs)/total number of animals ([3]; Experience 6: Jo2 200 μg/kg, 30 mg/kg post-treatment, control 16/20): 8/20; Survival rate ([3]; Experiment 1: Jo2 250 μg/kg, 10 mg/kg pretreatment, control 25): 65%; Mortality (24 hrs)/total number of animals ([3]; Experiment 1: Jo2 250 μg/kg, 10 mg/kg pretreatment, control 15/20): 7/20; Survival rate ([3]; Experiment 2: Jo2 250 μg/kg, 30 mg/kg pretreatment, control 10): 90%; Mortality (24 hrs)/total number of animals ([3]; Experiment 2: Jo2 250 μg/kg, 30 mg/kg pretreatment, control 18/20): 2/20; Survival rate ([3]; Experiment 3: Jo2 250 μg/kg, 10 mg/kg post-treatment, control 10): 15%; Mortality (24 hrs)/total number of animals ([3]; Experiment 3: Jo2 250 μg/kg, 10 mg/kg post-treatment, control 18/20): 17/20; Survival rate ([3]; Experiment 4: Jo2 250 μg/kg, 30 mg/kg post-treatment, control 5): 35%; Mortality (24 hrs)/total number of animals ([3]; Experiment 4: Jo2 250 μg/kg, 30 mg/kg post-treatment, control 19/20): 13/20
